Test results published in patent US7384927B2, “Alkylated porphyrins as pesticides acting both in the presence and absence of light” (priority 2003, dated 2008).

Columns and labels:
Assay type in all cases: in vivo
[1] = test system: Bactrocera oleae (olive fly); assay: Uptake of alkylated porphyrins by flies fed porphyrin-containing bait; settings: B. oleae
Description: (§1) Porphyrins: • a) meso[tri(N-methyl-pyridyl), mono(N-dodecyl-pyridyl)]porphine (abbr.: C12) • b) meso[tri(N-methyl-pyridyl), mono(N-tetradecyl-pyridyl)]porphine (abbr.: C14) • c) meso[tri(N-methyl-pyridyl), mono(N-octadecyl-pyridyl)]porphine (abbr.: C18) Bait: Aqueous solution containing 10% sucrose and 1% autolysed yeast Flies: • a) Ceratitis capitata (fruit fly) age: 1 week; weight: 5-6 mg • b) Bactrocera oleae (olive fly) age: 10 days; weight: 4-4.5 mg • c) Stomoxis calcitrans (stable fly) age: 10 days; weight: 12 mg Irradiation: • a) High pressure halogen lamp, equipped with infrared and UV filters, emission 360-850 nm, operated at intensities in the 760-2,000 μE s^−1m^−2 range • b) Sunlight, mid June at Padua latitude, average intensity of […] μE s^−1m^−2 with minimum and maximum values of 950 and, respectively, 1,380 μE s^−1m^−2
(§2) An appropriate number of flies (50 flies per each experiment) was caged in 115×55×70 mm Plexiglas cages with several holes (ø=0.5 mm) and starved for 36 h. Then, depending on the protocol to be adopted for each specific experiment, the flies were fed with the bait (10% sucrose and 1% autolysed yeast in neutral aqueous solution), which was either porphyrin-free or added with a predetermined concentration of the porphyrin. These flies were then used in the various experimental sessions.
(§3) At predetermined times, the flies were sacrificed by freezing; the dead flies were then homogenized with a Polytron in 10 ml of a 2% aqueous solution of sodium dodecylsulphate (SDS). The suspension was centrifuged for 10 min at 2,000 rpm, the pellet was discarded and known aliquots of the supernatant were diluted by means of a chloroform/methanol binary mixture (1/2, v/v). The porphyrin concentration was measured by reading the fluorescence emitted at wavelengths above 630 nm and interpolating the emission intensity with a calibration plot obtained with known amounts of the porphyrin. The results were expressed as nanomoles of porphyrin recovered per fly.

[2] = test system: Ceratitis capitata (fruit fly); assay: as above; settings: C. capitata
Description: as §1, §2, §3

[3] = test system: Stomoxis calcitrans (stable fly); assay: as above; settings: S. calcitrans
Description: as §1, §2, §3

[4] = test system: Bactrocera oleae (olive fly); assay: Release of alkylated porphyrin from flies after feeding with bait interrupted; settings: B. oleae, 1.25 μM porphyrin in the bait
Description: as §2, §3

[5] = test system: Ceratitis capitata (fruit fly); assay: as above; settings: C. capitata, 1.25 μM porphyrin in the bait
Description: as §2, §3

[6] = test system: Stomoxis calcitrans (stable fly); assay: as above; settings: S. calcitrans, 1.25 μM porphyrin in the bait
Description: as §2, §3

Ceratitis capitata flies [7] = assay: Insecticidal action in the dark: fly survival after porphyrin bait; settings: dark, fed 24 h, survival 12 h after change to porphyrin-free bait
Description: For comparison, data obtained with two conventional porphyrins (as those described in WO 97/29637) offered to the insects for 24 h at a 3.0 and 8.1 μmolar concentration in the same bait are also shown. In all cases, the survival was determined 12 hours after changing food supply from a porphyrin-containing to a porphyrin-free bait. […] These flies were then used in the various experimental sessions. […] The number of survivors was evaluated 12 h after switching from administration of a porphyrin-containing bait to a porphyrin-free bait. In none of the experiments was mortality or any apparent toxic effect observed in control flies (flies not fed with porphyrin, see survival at 0 μM porphyrin concentration).

Ceratitis capitata flies [8] = assay: Photoinsecticidal action: fly survival after bait and visible light irradiation (artificial lamp); settings: survival 10 h after irradiation
Description: as §1
The irradiations were performed for 1 h, then the flies were kept in dim light for monitoring the survival. Control flies were irradiated under identical conditions after feeding with a porphyrin-free bait.
The irradiations were performed for 1 h at a fluence-rate of 1220 μE s^−1m^−2. The survival was evaluated 10 h after the end of irradiation. […] The porphyrins are abbreviated as following: HP: haematoporphyrin; C1: meso-tetra(N-methyl-pyridyl)porphine.
The survival was evaluated 10 h after the end of irradiation.
as §2, with “sessions. […]” for “sessions.”

Ceratitis capitata flies [9] = assay: Photoinsecticidal action: fly survival after bait and sunlight irradiation; settings: 3 μM in bait, 12 h after feeding, survival 1 h after irradiation
Description: as §1
The survival was evaluated 1 h after the end of irradiation.
as §2

[10] = exposure time to bait 3 h, porphyrin in bait 1.24 μM
[11] = exposure time to bait 12 h, porphyrin in bait 1.24 μM
[12] = exposure time to bait 24 h, porphyrin in bait 1.24 μM
[13] = porphyrin concentration in bait 0.75 (μmoles), feeding 24 h
[14] = porphyrin concentration in bait 1.25 (μmoles), feeding 24 h
[15] = porphyrin concentration in bait 2.10 (μmoles), feeding 24 h
[16] = porphyrin concentration in bait 3.50 (μmoles), feeding 24 h
[17] = porphyrin concentration in bait 6.00 (μmoles), feeding 24 h

**Q.** Which “Recoveries (nmoles of porphyrin per fly)” value [1, 10] does the source give for `CCCCCCCCCCCC[n+]1ccc(-c2c3nc(c(-c4cc[n+](C)cc4)c4ccc([nH]4)c(-c4cc[n+](C)cc4)c4nc(c(-c5cc[n+](C)cc5)c5ccc2[nH]5)C=C4)C=C3)cc1` [C12, meso[tri(N-methyl-pyridyl), mono(N-dodecyl-pyridyl)]porphine] here?
**A.** The value was 0.8 nmoles of porphyrin per fly.

**Q.** What about the “Recoveries (nmoles of porphyrin per fly)” value [1, 11] of the same molecule?
**A.** Its value is 2.6 nmoles of porphyrin per fly.

**Q.** And the “Recoveries (nmoles of porphyrin per fly)” value [1, 12]?
**A.** Its value is 3.2 nmoles of porphyrin per fly.

**Q.** What about the “Recoveries (nmoles of porphyrin per fly)” value [1, 13] of the same molecule?
**A.** The value was 2.7 nmoles of porphyrin per fly.

**Q.** And the “Recoveries (nmoles of porphyrin per fly)” value [1, 14]?
**A.** Its value is 3.2 nmoles of porphyrin per fly.

**Q.** What about the “Recoveries (nmoles of porphyrin per fly)” value [1, 15] of the same molecule?
**A.** The value was 6.5 nmoles of porphyrin per fly.

**Q.** And the “Recoveries (nmoles of porphyrin per fly)” value [1, 16]?
**A.** The value was 9.3 nmoles of porphyrin per fly.

**Q.** And the “Recoveries (nmoles of porphyrin per fly)” value [1, 17]?
**A.** The value was 10.6 nmoles of porphyrin per fly.

**Q.** And the “Recoveries (nmoles of porphyrin per fly)” value [2, 10]?
**A.** Its value is 1.2 nmoles of porphyrin per fly.

**Q.** What about the “Recoveries (nmoles of porphyrin per fly)” value [2, 11] of the same molecule?
**A.** The value was 3.9 nmoles of porphyrin per fly.

**Q.** What about the “Recoveries (nmoles of porphyrin per fly)” value [2, 12] of the same molecule?
**A.** Its value is 4.1 nmoles of porphyrin per fly.

**Q.** And the “Recoveries (nmoles of porphyrin per fly)” value [2, 13]?
**A.** Its value is 2.9 nmoles of porphyrin per fly.

**Q.** What about the “Recoveries (nmoles of porphyrin per fly)” value [2, 14] of the same molecule?
**A.** The value was 4.1 nmoles of porphyrin per fly.

**Q.** And the “Recoveries (nmoles of porphyrin per fly)” value [2, 15]?
**A.** Its value is 7.3 nmoles of porphyrin per fly.

**Q.** What about the “Recoveries (nmoles of porphyrin per fly)” value [2, 16] of the same molecule?
**A.** The value was 9.1 nmoles of porphyrin per fly.

**Q.** And the “Recoveries (nmoles of porphyrin per fly)” value [2, 17]?
**A.** The value was 12.5 nmoles of porphyrin per fly.

**Q.** What about the “Recoveries (nmoles of porphyrin per fly)” value [3, 10] of the same molecule?
**A.** The value was 1.4 nmoles of porphyrin per fly.

**Q.** And the “Recoveries (nmoles of porphyrin per fly)” value [3, 11]?
**A.** Its value is 3.2 nmoles of porphyrin per fly.

**Q.** What about the “Recoveries (nmoles of porphyrin per fly)” value [3, 12] of the same molecule?
**A.** Its value is 3.7 nmoles of porphyrin per fly.

**Q.** What about the “Recoveries (nmoles of porphyrin per fly)” value [3, 13] of the same molecule?
**A.** The value was 2.5 nmoles of porphyrin per fly.

**Q.** What about the “Recoveries (nmoles of porphyrin per fly)” value [3, 14] of the same molecule?
**A.** The value was 3.7 nmoles of porphyrin per fly.

**Q.** What about the “Recoveries (nmoles of porphyrin per fly)” value [3, 15] of the same molecule?
**A.** Its value is 6.0 nmoles of porphyrin per fly.

**Q.** And the “Recoveries (nmoles of porphyrin per fly)” value [3, 16]?
**A.** Its value is 9.0 nmoles of porphyrin per fly.

**Q.** What about the “Recoveries (nmoles of porphyrin per fly)” value [3, 17] of the same molecule?
**A.** Its value is 9.7 nmoles of porphyrin per fly.

**Q.** And the “Recoveries (nmoles of porphyrin per fly), release” value ([4]; 12 h after feeding interrupted)?
**A.** The value was 2.5 nmoles of porphyrin per fly.

**Q.** What about the “Recoveries (nmoles of porphyrin per fly), release” value ([4]; 24 h after feeding interrupted) of the same molecule?
**A.** The value was 1.4 nmoles of porphyrin per fly.

**Q.** What about the “Recoveries (nmoles of porphyrin per fly), release” value ([4]; 48 h after feeding interrupted) of the same molecule?
**A.** The value was 0.8 nmoles of porphyrin per fly.

**Q.** What about the “Recoveries (nmoles of porphyrin per fly), release” value ([5]; 12 h after feeding interrupted) of the same molecule?
**A.** The value was 2.6 nmoles of porphyrin per fly.

**Q.** What about the “Recoveries (nmoles of porphyrin per fly), release” value ([5]; 24 h after feeding interrupted) of the same molecule?
**A.** The value was 1.1 nmoles of porphyrin per fly.

**Q.** What about the “Recoveries (nmoles of porphyrin per fly), release” value ([5]; 48 h after feeding interrupted) of the same molecule?
**A.** Its value is 0.7 nmoles of porphyrin per fly.

**Q.** What about the “Recoveries (nmoles of porphyrin per fly), release” value ([6]; 12 h after feeding interrupted) of the same molecule?
**A.** The value was 2.8 nmoles of porphyrin per fly.

**Q.** And the “Recoveries (nmoles of porphyrin per fly), release” value ([6]; 24 h after feeding interrupted)?
**A.** The value was 2.0 nmoles of porphyrin per fly.

**Q.** What about the “Recoveries (nmoles of porphyrin per fly), release” value ([6]; 48 h after feeding interrupted) of the same molecule?
**A.** The value was 0.9 nmoles of porphyrin per fly.

**Q.** And the “Survival (% of control untreated flies)” value (Ceratitis capitata flies [7]; 0.75 μM in bait)?
**A.** The value was 100 % of control untreated flies.

**Q.** And the “Survival (% of control untreated flies)” value (Ceratitis capitata flies [7]; 1.25 μM in bait)?
**A.** Its value is 73 % of control untreated flies.

**Q.** What about the “Survival (% of control untreated flies)” value (Ceratitis capitata flies [7]; 2.10 μM in bait) of the same molecule?
**A.** Its value is 58 % of control untreated flies.

**Q.** What about the “Survival (% of control untreated flies)” value (Ceratitis capitata flies [7]; 3.00 μM in bait) of the same molecule?
**A.** Its value is 42 % of control untreated flies.

**Q.** And the “Survival (% of control untreated flies)” value (Ceratitis capitata flies [7]; 5.00 μM in bait)?
**A.** The value was 38 % of control untreated flies.

**Q.** What about the “Survival (% of control untreated flies)” value (Ceratitis capitata flies [7]; 8.10 μM in bait) of the same molecule?
**A.** The value was 35 % of control untreated flies.

**Q.** What about the “Survival (% of control untreated flies)” value (Ceratitis capitata flies [8]; 3 μM in bait 24 h, time interval feeding-irradiation 0 h, irradiation 1 h at 1220 μE s^−1m^−2) of the same molecule?
**A.** The value was 4 % of control untreated flies.

**Q.** What about the “Survival (% of control untreated flies)” value (Ceratitis capitata flies [8]; 3 μM in bait 24 h, time interval feeding-irradiation 12 h, irradiation 1 h at 1220 μE s^−1m^−2) of the same molecule?
**A.** The value was 8 % of control untreated flies.

**Q.** And the “Survival (% of control untreated flies)” value (Ceratitis capitata flies [8]; 3 μM in bait 24 h, time interval feeding-irradiation 24 h, irradiation 1 h at 1220 μE s^−1m^−2)?
**A.** The value was 23 % of control untreated flies.

**Q.** What about the “Survival (% of control untreated flies)” value (Ceratitis capitata flies [8]; 3 μM in bait 24 h, time interval feeding-irradiation 48 h, irradiation 1 h at 1220 μE s^−1m^−2) of the same molecule?
**A.** Its value is 37 % of control untreated flies.

**Q.** And the “Survival (% of control untreated flies)” value (Ceratitis capitata flies [8]; 3 μM in bait, fluence-rate 760 μE s^−1m^−2, irradiated 24 h after feeding (title))?
**A.** The value was 13 % of control untreated flies.

**Q.** What about the “Survival (% of control untreated flies)” value (Ceratitis capitata flies [8]; 3 μM in bait, fluence-rate 1220 μE s^−1m^−2, irradiated 24 h after feeding (title)) of the same molecule?
**A.** Its value is 4 % of control untreated flies.

**Q.** What about the “Survival (% of control untreated flies)” value (Ceratitis capitata flies [8]; 3 μM in bait, fluence-rate 1500 μE s^−1m^−2, irradiated 24 h after feeding (title)) of the same molecule?
**A.** Its value is 2 % of control untreated flies.

**Q.** What about the “Survival (% of control untreated flies)” value (Ceratitis capitata flies [8]; 3 μM in bait, fluence-rate 2000 μE s^−1m^−2, irradiated 24 h after feeding (title)) of the same molecule?
**A.** Its value is 0 % of control untreated flies.

**Q.** What about the “Survival (% of control untreated flies)” value (Ceratitis capitata flies [9]; sunlight (average 1150 μE s^−1m^−2) 15 min) of the same molecule?
**A.** The value was 33 % of control untreated flies.

**Q.** And the “Survival (% of control untreated flies)” value (Ceratitis capitata flies [9]; sunlight (average 1150 μE s^−1m^−2) 30 min)?
**A.** Its value is 17 % of control untreated flies.

**Q.** And the “Survival (% of control untreated flies)” value (Ceratitis capitata flies [9]; sunlight (average 1150 μE s^−1m^−2) 45 min)?
**A.** Its value is 10 % of control untreated flies.

**Q.** And the “Survival (% of control untreated flies)” value (Ceratitis capitata flies [9]; sunlight (average 1150 μE s^−1m^−2) 60 min)?
**A.** The value was 2 % of control untreated flies.
